Test results reported in patent US20190183896A1, “ONE STEP MILLING PROCESS FOR PREPARING MICRONIZED PALIPERIDONE ESTERS” (SpecGX LLC, priority 2017, published 2019).

Assay: Particle size measurement of milled suspension (MALVERN MASTERSIZER 3000, in deionized water)
Format: physicochemical
Settings: mean; suspension of Example 1 milled 20 minutes with 700 micron polystyrene grinding media (Example 2); measured in deionized water
Experimental: The suspension from Example 1 (6-35 w/v %) was milled in a NETZSCH MINICER bead mill using 700 micron polystyrene grinding media (40-85% media load). The mixture was milled at a speed of 3.1-5.5 m/s at 15-25° C. for 20 minutes.
Following milling, particle size was measured, in deionized water, using a MALVERN MASTERSIZER 3000 particle size analyzer. The mean milled paliperidone palmitate particle size distribution of the suspension was D90 less than 20 micron, D50 less than 10 micron, and a D10 less than 3 micron (FIG. 1).

For CCCCCCCCCCCCCCCC(=O)OC1CCCn2c1nc(C)c(CCN1CCC(c3noc4cc(F)ccc34)CC1)c2=O (stereo not drawn) [paliperidone palmitate, 3-(2-(4-(6-fluoro-3a,7a-dihydrobenzo[d]isoxazol-3-yl)piperidin-1-yl)ethyl)-2-methyl-4-oxo-6,7,8,9-tetrahydro-4H-pyrido[1,2-a]pyrimidin-9-yl palmitate], the “particle size distribution D10” value was “less than 3 micron”, the “particle size distribution D50” value was “less than 10 micron” and the “particle size distribution D90” value was “less than 20 micron”.
